Molecular target: ULK1 (Homo sapiens (Human), UniProt O75385)
Experiment: ULK1 inhibition assay (Table 1)
Type: biochemical
Settings: * = tested as a mixture of regioisomers

Sequence of ULK1 (O75385 whole entry, species assumed): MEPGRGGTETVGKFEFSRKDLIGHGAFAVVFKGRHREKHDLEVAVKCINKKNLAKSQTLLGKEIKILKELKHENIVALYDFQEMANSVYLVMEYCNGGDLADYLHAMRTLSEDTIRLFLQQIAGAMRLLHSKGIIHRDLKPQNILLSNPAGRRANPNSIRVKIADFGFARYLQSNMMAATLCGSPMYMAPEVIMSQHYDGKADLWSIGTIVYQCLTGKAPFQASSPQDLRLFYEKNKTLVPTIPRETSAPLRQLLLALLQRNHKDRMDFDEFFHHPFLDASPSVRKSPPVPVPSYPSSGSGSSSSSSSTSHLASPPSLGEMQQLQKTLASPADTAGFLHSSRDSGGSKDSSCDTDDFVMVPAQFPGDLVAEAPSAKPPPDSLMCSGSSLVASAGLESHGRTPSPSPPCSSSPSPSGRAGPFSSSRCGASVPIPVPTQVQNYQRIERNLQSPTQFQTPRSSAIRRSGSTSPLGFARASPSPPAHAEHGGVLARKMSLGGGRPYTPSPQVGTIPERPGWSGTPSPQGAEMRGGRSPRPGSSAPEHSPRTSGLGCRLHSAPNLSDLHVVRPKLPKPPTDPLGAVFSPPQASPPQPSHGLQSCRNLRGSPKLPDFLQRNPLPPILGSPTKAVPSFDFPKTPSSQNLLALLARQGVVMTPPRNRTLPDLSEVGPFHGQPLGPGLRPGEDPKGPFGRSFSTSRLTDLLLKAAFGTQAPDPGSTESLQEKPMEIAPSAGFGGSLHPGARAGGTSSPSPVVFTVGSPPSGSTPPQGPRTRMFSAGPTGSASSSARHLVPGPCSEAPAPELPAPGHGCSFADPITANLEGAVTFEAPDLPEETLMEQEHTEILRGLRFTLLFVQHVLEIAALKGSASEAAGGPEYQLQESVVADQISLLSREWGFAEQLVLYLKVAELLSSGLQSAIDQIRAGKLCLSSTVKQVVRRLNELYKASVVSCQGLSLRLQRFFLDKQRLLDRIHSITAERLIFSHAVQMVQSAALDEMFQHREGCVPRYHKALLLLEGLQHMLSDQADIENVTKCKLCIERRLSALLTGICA

| Structure (SMILES) | IC50 [nM] |
| --- | --- |
| COc1cc(N2CCOCC2)ccc1Nc1ncc(C(F)(F)F)c(Nc2ccc3c(c2)CCC(=O)N3)n1 [123b, 6-((2-((2-methoxy-4-morpholinophenyl)amino)-5-(trifluoromethyl)pyrimidin-4-yl)amino)-3,4-dihydroquinolin-2(1H)-one] | < 200 |
| FC(F)(F)c1cnc(Nc2ccc3c(c2)OCO3)nc1Nc1ccc2c(c1)OCO2 [124c, N^2,N^4-bis(benzo[d][1,3]dioxol-5-yl)-5-(trifluoromethyl)pyrimidine-2,4-diamine] | < 200 |
| O=C1CCc2cc(Nc3ncc(C(F)(F)F)c(Nc4cccc5ccccc45)n3)ccc2N1 [126a, 6-((4-(naphthalen-1-ylamino)-5-(trifluoromethyl)pyrimidin-2-yl)amino)-3,4-dihydroquinolin-2(1H)-one] | 200 to 2000 |
| FC(F)(F)c1cnc(Nc2cccc3ccccc23)nc1Nc1cccc2ccccc12 [126b, N^2,N^4-di(naphthalen-1-yl)-5-(trifluoromethyl) pyrimidine-2,4-diamine] | 200 to 2000 |
| O=C1CCc2cc(Nc3ncc(C(F)(F)F)c(NC4Cc5ccccc5C4)n3)ccc2N1 [130a, 6-((4-((2,3-dihydro-1H-inden-2-yl)amino)-5-(trifluoromethyl)pyrimidin-2-yl)amino)-3,4-dihydroquinolin-2(1H)-one] | < 200 |
| O=C1CCc2cc(Nc3nc(NC4Cc5ccccc5C4)ncc3C(F)(F)F)ccc2N1 [130b, 6-((2-((2,3-dihydro-1H-inden-2-yl)amino)-5-(trifluoromethyl)pyrimidin-4-yl)amino)-3,4-dihydroquinolin-2(1H)-one] | > 2000 |
| O=C1CCc2cc(Nc3ncc(C(F)(F)F)c(NC4CC4)n3)ccc2N1 [131a, 6-((4-(cyclopropylamino)-5-(trifluoromethyl)pyrimidin-2-yl)amino)-3,4-dihydroquinolin-2(1H)-one] | < 200 |
| O=C1CCc2cc(Nc3nc(NC4CC4)ncc3C(F)(F)F)ccc2N1 [131b, 6-((2-(cyclopropylamino)-5-(trifluoromethyl)pyrimidin-4-yl)amino)-3,4-dihydroquinolin-2(1H)-one] | < 200 |
| Fc1c(Nc2ncc(C(F)(F)F)c(Nc3ccc4c(c3)OCO4)n2)cccc1C(F)(F)F [141a, N^4-(benzo[d][1,3]dioxol-5-yl)-N^2-(2-fluoro-3-(trifluoromethyl)phenyl)-5-(trifluoromethyl)pyrimidine-2,4-diamine] | > 2000 |
| Fc1c(Nc2nc(Nc3ccc4c(c3)OCO4)ncc2C(F)(F)F)cccc1C(F)(F)F [141b, N^2-(benzo[d][1,3]dioxol-5-yl)-N^4-(2-fluoro-3-(trifluoromethyl)phenyl)-5-(trifluoromethyl)pyrimidine-2,4-diamine] | < 200 |
| COc1cccc(Nc2nc(Nc3ccc4c(c3)CCC(=O)N4)ncc2Cl)c1 [143a, 6-((5-chloro-4-((3-methoxyphenyl)amino)pyrimidin-2-yl)amino)-3,4-dihydroquinolin-2(1H)-one] | < 200 |
| COc1cccc(Nc2ncc(Cl)c(Nc3cccc(OC)c3)n2)c1 [143b, 5-chloro-N^2,N^4-bis(3-methoxyphenyl) pyrimidine-2,4-diamine] | < 200 |
| O=C1CCc2cc(Nc3ncc(C(F)(F)F)c(NC4CCC4)n3)ccc2N1 [150a, 6-((4-(cyclobutylamino)-5-(trifluoromethyl)pyrimidin-2-yl)amino)-3,4-dihydroquinolin-2(1H)-one] | < 200 |
| O=C1CCc2cc(Nc3nc(NC4CCC4)ncc3C(F)(F)F)ccc2N1 [150b, 6-((2-(cyclobutylamino)-5-(trifluoromethyl)pyrimidin-4-yl)amino)-3,4-dihydroquinolin-2(1H)-one] | < 200 |
| COCCNc1nc(Nc2ccc3c(c2)CCC(=O)N3)ncc1C(F)(F)F [151a, 6-((4-((2-methoxyethyl)amino)-5-(trifluoromethyl)pyrimidin-2-yl)amino)-3,4-dihydroquinolin-2(1H)-one] | < 200 |
| COCCNc1ncc(C(F)(F)F)c(Nc2ccc3c(c2)CCC(=O)N3)n1 [151b, 6-((2-((2-methoxyethyl)amino)-5-(trifluoromethyl)pyrimidin-4-yl)amino)-3,4-dihydroquinolin-2(1H)-one] | < 200 |
| FC(F)(F)c1cnc(Nc2cnc3[nH]ccc3c2)nc1NC1CC1 [152a, N^4-cyclopropyl-N^2-(1H-pyrrolo[2,3-b]pyridin-5-yl)-5-(trifluoromethyl)pyrimidine-2,4-diamine] | < 200 |
| FC(F)(F)c1cnc(NC2CC2)nc1Nc1cnc2[nH]ccc2c1 [152b, N^2-cyclopropyl-N^4-(1H-pyrrolo[2,3-b]pyridin-5-yl)-5-(trifluoromethyl)pyrimidine-2,4-diamine] | 200 to 2000 |
| FC(F)(F)c1cnc(Nc2ccc3c(c2)OCCO3)nc1NC1CC1 [158a, N^4-cyclopropyl-N^2-(2,3-dihydrobenzo[b][1,4]dioxin-6-yl)-5-(trifluoromethyl)pyrimidine-2,4-diamine] | < 200 |
| FC(F)(F)c1cnc(NC2CC2)nc1Nc1ccc2c(c1)OCCO2 [158b, N^2-cyclopropyl-N^4-(2,3-dihydrobenzo[b][1,4]dioxin-6-yl)-5-(trifluoromethyl)pyrimidine-2,4-diamine] | < 200 |
| O=C1CCc2cc(Nc3ncc(C(F)(F)F)c(NC4CCCC4)n3)ccc2N1 [160a, 6-((4-(cyclopentylamino)-5-(trifluoromethyl)pyrimidin-2-yl)amino)-3,4-dihydroquinolin-2(1H)-one] | < 200 |

| Structure (SMILES) | IC50 [nM] |
| --- | --- |
| O=C1CCc2cc(Nc3nc(NC4CCCC4)ncc3C(F)(F)F)ccc2N1 [160b, 6-((2-(cyclopentylamino)-5-(trifluoromethyl)pyrimidin-4-yl)amino)-3,4-dihydroquinolin-2(1H)-one] | 200 to 2000 |
| FC(F)(F)c1cnc(Nc2cnc3[nH]ccc3c2)nc1NC1CCC1 [161a, N^4-cyclobutyl-N^2-(1H-pyrrolo[2,3-b]pyridin-5-yl)-5-(trifluoromethyl)pyrimidine-2,4-diamine] | < 200 |
| FC(F)(F)c1cnc(NC2CCC2)nc1Nc1cnc2[nH]ccc2c1 [161b, N^2-cyclobutyl-N^4-(1H-pyrrolo[2,3-b]pyridin-5-yl)-5-(trifluoromethyl)pyrimidine-2,4-diamine] | < 200 |
| FC(F)(F)c1cnc(NC2Cc3ccccc3C2)nc1Nc1ccc2c(c1)OCO2 [163a, N^4-(benzo[d][1,3]dioxol-5-yl)-N^2-(2,3-dihydro-1H-inden-2-yl)-5-(trifluoromethyl)pyrimidine-2,4-diamine] | > 2000 |
| FC(F)(F)c1cnc(Nc2ccc3c(c2)OCO3)nc1NC1Cc2ccccc2C1 [163b, N^2-(benzo [d] [1,3]dioxol-5-yl)-N^4-(2,3-dihydro-1H-inden-2-yl)-5-(trifluoromethyl)pyrimidine-2,4-diamine] | > 2000 |
| FC(F)(F)c1cnc(N2CCCC2)nc1Nc1ccc2c(c1)OCO2 [164a, N-(benzo[d][1,3]dioxol-5-yl)-2-(pyrrolidin-1-yl)-5-(trifluoromethyl)pyrimidin-4-amine] | > 2000 |
| FC(F)(F)c1cnc(Nc2ccc3c(c2)OCO3)nc1N1CCCC1 [164b, N-(benzo[d][1,3]dioxol-5-yl)-4-(pyrrolidin-1-yl)-5-(trifluoromethyl)pyrimidin-2-amine] | 200 to 2000 |
| Nc1ncc(C(F)(F)F)c(Nc2ccc3c(c2)OCO3)n1 [165a, N^4-(benzo[d][1,3]dioxol-5-yl)-5-(trifluoromethyl)pyrimidine-2,4-diamine] | 200 to 2000 |
| Nc1nc(Nc2ccc3c(c2)OCO3)ncc1C(F)(F)F [165b, N^2-(benzo[d][1,3]dioxol-5-yl)-5-(trifluoromethyl)pyrimidine-2,4-diamine] | 200 to 2000 |
| FC(F)(F)c1cnc(N2CCC2)nc1Nc1ccc2c(c1)OCO2 [166a, 2-(azetidin-1-yl)-N-(benzo[d][1,3]dioxol-5-yl)-5-(trifluoromethyl)pyrimidin-4-amine] | > 2000 |
| FC(F)(F)c1cnc(Nc2ccc3c(c2)OCO3)nc1N1CCC1 [166b, 4-(azetidin-1-yl)-N-(benzo[d][1,3]dioxol-5-yl)-5-(trifluoromethyl)pyrimidin-2-amine] | < 200 |
| FC(F)(F)c1cnc(NCC2CC2)nc1Nc1ccc2c(c1)OCO2 [167a, N^4-(benzo[d][1,3]dioxol-5-yl)-N^2-(cyclopropylmethyl)-5-(trifluoromethyl)pyrimidine-2,4-diamine] | < 200 |
| FC(F)(F)c1cnc(Nc2ccc3c(c2)OCO3)nc1NCC1CC1 [167b, N^2-(benzo[d][1,3]dioxol-5-yl)-N^4-(cyclopropylmethyl)-5-(trifluoromethyl)pyrimidine-2,4-diamine] | < 200 |
| FC(F)(F)c1cnc(NC2CCC2)nc1Nc1ccc2c(c1)OCO2 [168a, N^4-(benzo[d][1,3]dioxol-5-yl)-N^2-cyclobutyl-5-(trifluoromethyl)pyrimidine-2,4-diamine] | < 200 |
| FC(F)(F)c1cnc(Nc2ccc3c(c2)OCO3)nc1NC1CCC1 [168b, N^2-(benzo[d][1,3]dioxol-5-yl)-N^4-cyclobutyl-5-(trifluoromethyl)pyrimidine-2,4-diamine] | 200 to 2000 |
| FC(F)(F)c1cnc(NC2CCC2)nc1NC1CCC1 [168c, N^2,N^4-dicyclobutyl-5-(trifluoromethyl) pyrimidine-2,4-diamine] | 200 to 2000 |
| COc1cc(Nc2ncc(Br)c(N(C)C(=O)c3ccccc3O)n2)cc(OC)c1OC [171b, N-(5-bromo-2-((3,4,5-trimethoxyphenyl)amino)pyrimidin-4-yl)-2-hydroxy-N-methylbenzamide] | < 200 |
| O=C1CCc2cc(Nc3ncc(C(F)(F)F)c(Nc4ccc5c(c4)OC(F)(F)O5)n3)ccc2N1 [178a, 6-((4-((2,2-difluorobenzo[d][1,3]dioxol-5-yl)amino)-5-(trifluoromethyl)pyrimidin-2-yl)amino)-3,4-dihydroquinolin-2(1H)-one] | < 200 |
| O=C1CCc2cc(Nc3nc(Nc4ccc5c(c4)OC(F)(F)O5)ncc3C(F)(F)F)ccc2N1 [178b, 6-((2-((2,2-difluorobenzo[d][1,3]dioxol-5-yl)amino)-5-(trifluoromethyl)pyrimidin-4-yl)amino)-3,4-dihydroquinolin-2(1H)-one] | < 200 |
| O=C1CCc2cc(Nc3ncc(C(F)(F)F)c(OC4Cc5ccccc5C4)n3)ccc2N1 [180a, 6-((4-((2,3-dihydro-1H-inden-2-yl)oxy)-5-(trifluoromethyl)pyrimidin-2-yl)amino)-3,4-dihydroquinolin-2(1H)-one] | < 200 |

— patent US10266549B2, “ULK1 inhibitors and methods using same” (SALK INSTITUTE FOR BIOLOGICAL STUDIES, priority 2014, dated 2019)
